Counter-ions that a name gives are not always drawn.

As usually defined, the Ki is the dissociation constant of the complex between target and ligand, obtained from inhibition or displacement. A low value points to a stronger hold on the target.

The target of the experiment is T1, α1d (rat) adrenoreceptor (Rattus norvegicus, UniProt P23944).
T1 sequence (P23944 1-561): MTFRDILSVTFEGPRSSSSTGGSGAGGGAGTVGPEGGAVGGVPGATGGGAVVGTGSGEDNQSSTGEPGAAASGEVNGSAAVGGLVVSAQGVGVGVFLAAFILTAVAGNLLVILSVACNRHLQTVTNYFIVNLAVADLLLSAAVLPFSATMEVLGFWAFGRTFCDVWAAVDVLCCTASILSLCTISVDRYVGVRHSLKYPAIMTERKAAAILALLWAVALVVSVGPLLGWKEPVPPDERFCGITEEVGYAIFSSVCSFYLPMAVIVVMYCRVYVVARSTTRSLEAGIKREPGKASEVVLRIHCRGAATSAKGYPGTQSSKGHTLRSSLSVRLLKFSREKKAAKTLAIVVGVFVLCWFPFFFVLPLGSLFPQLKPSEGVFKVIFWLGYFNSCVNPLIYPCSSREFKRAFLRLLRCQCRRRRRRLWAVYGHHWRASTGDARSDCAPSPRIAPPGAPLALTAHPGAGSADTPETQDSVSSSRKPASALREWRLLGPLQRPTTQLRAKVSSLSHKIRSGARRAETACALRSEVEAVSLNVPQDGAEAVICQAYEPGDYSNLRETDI
Put plainly: [3H]-prazosin radioligand binding, cloned α1d (rat) adrenoreceptor in LTK cells. The conditions noted are these: cloned receptor in LTK cell membranes, [3H]prazosin 0.2 nM. On the procedure: Representative compounds of the invention were evaluated for α adrenoreceptor binding affinity in vitro using [^3H]-prazosin as the radioligand and following four cloned α1, adrenoreceptors expressed in LTK cells: α1a (rat), α1a (bovine), α1b : (hampster), and α1d (rat).
The cDNA clones encoding the α1, adrenoreceptors were obtained from TULCO (Triangle Universities Licensing Consortium, Research Triangle Park, N.C.) and inserted into the eukaryotic expression vector SnaB30. In this vector, expression of the adrenoreceptor gene is under the transcriptional control of an SV40 early promoter. Positive drug selection is provided by a neomycin-resistance gene. Mouse fibroblast cells (LTK) were transfected with the α1 expression plasmids and grown in Dulbecco's modified Eagle's medium (DMEM) containing 10% fetal calf serum and 30 μM G418. Stable G418-resistant parental lines were generated with successful expression of adrenoreceptor protein monitored using radioligand binding techniques. Stable single cell clones derived from the parental lines were screened in adrenoreceptor binding assays to identify clones having high adrenoreceptor density. Roller bottle cultures of the cloned lines were used to provide cell membranes for subsequent adrenoreceptor binding characterization studies. A cell line containing the SnaB30 vector expressing the human erythropoietin gene served as a negative control.
For adrenoreceptor binding assays, large scale membrane preparations were utilized in which 6 million cells were seeded into small (450 cm^2) Coming tissue culture roller bottles. DMEM (200 mL) containing 10% fetal calf serum and 300 μM G418 were added to each roller bottle. A 95% air/5% CO2 gas mixture (sterile) was injected into each roller bottle prior to sealing, and the bottles were then incubated at 37° C. on a roller rack for 5 days. Cells were refed with fresh medium after 3 days in culture.
On the fifth day of culture, growth medium was removed from cells grown in roller bottles, and the cells were washed twice with PBS (Sigma, 120 mM NaCl, 2.7 mM KCl, 10 mM Na2HPO4-NaH2PO4, pH=7.4). Cells were detached from the roller bottles by incubating for 15 minutes at 37° C. in a Tris-EDTA solution (10 mM Tris, 100 mM NaCl, 1 mM EDTA, pH=7.4). The cell suspension from each roller bottle was decanted into tared centrifuge tubes and kept on ice. An aliquot of each cell suspension was generally taken for cell counting. Cells were centrifuged at 3000×G for 5 minutes at 2-4° C., washed with PBS and recentrifuged. The supernatant was decanted, and the pellet was weighed to determine the wet weight of cells. Cells were washed a final time in 40 vol 5 mM Tris-HCl, 5 mM EDTA, pH=7.7 and centrifuged at 40,000×G for 10 minutes (“vol” indicates volume/weight, e.g., a “vol” of 40 would indicate that the one gram of cells were washed with 40 mls of buffer). Cells were homogenized in of 50 mM Tris-HCl, 5 mM EDTA (pH=7.4) (10 mL) and diluted to 40 mL/tube. Homogenates were centrifuged at 40,000×G for 10 minutes. The supernatant was decanted and the pellets rehomogenized in 50 mM Tris-HCl (pH=7.4) and centrifuged as before. The supernatant was decanted and the homogenate was resuspended in 6.25 volumes (per gram wet weight) of 50 mM Tris-HCl and aliquots of the pooled homogenates frozen in liquid N2 and,stored at −70° C. until the time of assay.
Receptor binding assays for α1 adrenoreceptors were performed essentially as described by Greengrass and Bremner (Eur. J. Pharmacol. 55: 323-326 (1979)). […] Following equilibration, bound radioligand was separated from free on GF/B filters (presoaked in 0.5% polyethyleneimine) using ither a Brandel or Packard cell harvester. Radioactivity was determined by standard liquid scintillation techniques. Data were analyzed as previously described (Hancock, A. A., Kyncl, J. J., Martin, Y. C. and DeBemardis, J. F., J. Receptor Res. 8: 23-46 (1988)). The in Table 1.
In turn, `COc1cccc2c1N1CCN(CCn3c(=O)[nH]c4c(sc5cccnc54)c3=O)CC1CO2.Cl.Cl.Cl` (single isomer, unassigned; (+)) [Example 16, (+) 3-[2-(10-methoxy-1,2,4a,5-tetrahydropyrazino[2,1-c][1,4]benzoxazin-3(4H)-yl)ethyl]pyrido[2′,3′:4,5]thieno[3,2-d]pyrimidine-2,4(1H,3H)-dione trihydrochloride] gave a Ki of 2.01 nM. In other words, the single-digit nanomolar range.

`COc1cccc2c1N1CCN(CCCn3c(=O)[nH]c4c(sc5cccnc54)c3=O)CC1CO2.Cl.Cl.Cl` (single isomer, unassigned; (-)) [Example 9, (−) 3-[3-(10-methoxy-1,2,4a,5-tetrahydropyrazino[2,1-c][1,4]benzoxazin-3(4H)-yl)propyl]pyrido[2′,3′:4,5]thieno[3,2-d]pyrimidine-2,4(1H, 3H)-dione trihydrochloride] registered a Ki of 1.28 nM.

`COc1cccc2c1N1CCN(CCn3c(=O)[nH]c4c(sc5cccnc54)c3=O)CC1CO2.Cl.Cl` (single isomer, unassigned; (-)) [Example 7, (−) 3-[2-(10methoxy-1,2,4a,5-tetrahydropyrazino[2,1-c][1,4]benzoxazin-3(4H)-yl)ethyl]pyrido[2′,3′:4,5]thieno[3,2-d]pyrimidine-2,4(1H,3H)-dione dihydrochloride] came in with an inhibitory constant (Ki) of 1.13 nM.

`COc1cccc2c1N1CCN(CCCCn3c(=O)[nH]c4c(sc5cccnc54)c3=O)CC1CO2` (single isomer, unassigned; (+)) [Example 14, (+) 3-[4-(10-methoxy-1,2,4a,5-tetrahydropyrazino[2,1-c][1,4]benzoxazin-3(4H)-yl)butyl]pyido [2′,3′:4,5]thieno[3,2-d]pyrimidine-2,4(1H,3H)-dione trihydrochloride] yielded an inhibitory constant (Ki) of 2.16 nM.

`O=c1[nH]c2c(sc3cccnc32)c(=O)n1CCCN1CCN2c3ccccc3OCC2C1` (single isomer, unassigned; (-)) [Example 2, (−) 3-[3-(1,2,4a,5-tetrahydropyrazino[2,1-c][1,4]benzoxazin-3(4H)-yl)propyl]pyrido[2′,3′:4,5]thieno[3,2-d]pyrimidine-2,4(1H,3H)-dione dihydrochloride] yielded a Ki of 69.8 nM.

Regarding `COc1cccc2c1N1CCN(CCCCn3c(=O)[nH]c4c(sc5ncccc54)c3=O)CC1CO2.Cl.Cl.Cl` (single isomer, unassigned; (+)) [Example 15, (+) 3-[4-(10-methoxy-1,2,4a,5-tetrahydropyrazino[2,1-c][1,4]benzoxazin-3(4H)-yl)butyl]pyrido[3′,2′:4,5]thieno[3,2-d]pyrimidine-2,4(1H,3H)-dione trihydrochloride], the Ki turned out to be 1.3 nM.

Take `Cl.Cl.O=c1[nH]c2c(sc3cccnc32)c(=O)n1CCCN1CCN2c3ccccc3OCC2C1` (single isomer, unassigned; (+)) [Example 1, (+) 3-[3-(1,2,4a,5-tetrahydropyrazino[2,1-c][1,4]benzoxazin-3(4H)-yl)propyl]pyrido[2′,3′:4,5]thieno[3,2-d]pyrimidine-2,4(1H,3H)-dione dihydrochloride]: the Ki was 5.89 nM.

Compound `O=c1[nH]c2c(sc3cccnc32)c(=O)n1CCCCN1CCN2c3ccccc3OCC2C1` (single isomer, unassigned; (-)) [Example 4, (−) 3-[4-(1.2,4a,5-tetrahydropyrazino[2,1-c][1,4benzoxazin-3(4H)-yl)butyl]pyrido[2′,3′:4,5]thieno[3,2-d]pyrimidine-2,4(1H,3H)-dione dihydrochloride] yielded a Ki of 19.5 nM.

In turn, `COc1cccc2c1N1CCN(CCCCn3c(=O)[nH]c4c(sc5ncc(Cl)nc54)c3=O)CC1CO2.Cl.Cl` (single isomer, unassigned; (-)) [Example 12, (−) 3-[4-(10-methoxy-1,2,4a,5-tetrahydropyrazino[2,1-c][1,4]benzoxazin-3(4H)-yl)butyl]-8-chloropyrazino[2′,3′:4,5]thieno[3,2-d]pyrimidine-2,4(1H,3H)-dione dihydrochloride] displayed a Ki of 1.15 nM.

Take “(−) 3-[3-(10-methoxy-1,2,4a,5-tetrahydropyrazino[2,1-c][1,4]benzoxazin-3(4H)-yl)butyl]pyrido[2′,3′:4,5]thieno[3,2-d]pyrimidine-2,4(1H,3H)-dione trihydrochloride [Example 10]”: the affinity, expressed as Ki, was 0.344 nM. This Ki is about 3.3-fold lower than that of the compound before.

`Cl.Cl.O=c1[nH]c2c(sc3ncccc32)c(=O)n1CCCCN1CCN2c3ccccc3OCC2C1` (single isomer, unassigned; (+)) [Example 5, (+) 3-[4-(1,2,4a,5-tetrahydropyrazino[2,1-c][1,4]benzoxazin-3(4H)-yl)butyl]pyrido[3′, 2′:4,5]thieno[3,2-d]pyrimidine-2,4(1H,3H)-dione dihydrochloride] showed a Ki of 4.26 nM.

`COc1cccc2c1N1CCN(CCn3c(=O)[nH]c4c(sc5ncc(Cl)nc54)c3=O)CC1CO2.Cl.Cl` (single isomer, unassigned; (-)) [Example 13, (−) 3-[2-(10-methoxy-1,2,4a,5-tetrahydropyrazino[2,1-c][1,4]benzoxazin-3(4H)-yl)ethyl]-8-chloropyrazino[2′,3′:4,5]thieno[3,2-d]pyrimidine-2,4(1H,3H)-dione dihydrochloride]: the Ki came out at 3.52 nM.

Regarding `COc1cccc2c1N1CCN(CCn3c(=O)[nH]c4c(sc5ncc(Cl)nc54)c3=O)CC1CO2.Cl.Cl` (single isomer, unassigned; (+)) [Example 8, (+) 3-[2-(10-methoxy-1,2,4a,5-tetrahydropyrazino[2,1-c][1,4]benzoxazin-3(4H)-yl)ethyl]-8-chloropyrazino[2′,3′:4,5]thieno[3,2-d]pyrimidine-2,4(1H,3H)-dione dihydrochloride], the affinity, expressed as Ki, was 5.08 nM.

`COc1cccc2c1N1CCN(CCCn3c(=O)[nH]c4c(sc5cccnc54)c3=O)CC1CO2.Cl.Cl.Cl` (single isomer, unassigned; (+)) [Example 17, (+) 3-[3-(10-methoxy-1,2,4a,5-tetrahydropyrazino[2,1-c][1,4]benzoxazin-3(4H)-yl)propyl]pyrido[2′,3′:4,5]thieno[3,2-d]pyrimidine-2,4(1H,3H)-dione trihydrochloride] registered a Ki of 20.5 nM.

On to `Cl.Cl.O=c1[nH]c2c(sc3ncccc32)c(=O)n1CCCCN1CCN2c3ccccc3OCC2C1` (single isomer, unassigned; (-)) [Example 6, (−) 3-[4-(1,2,4a,5-tetrahydropyrazino[2,1-c][1,4]benzoxazin-3(4H)-yl)butyl]pyrido[3′, 2′:4,5]thieno[3,2-d]pyrimidine-2,4(1H,3H)-dione dihydrochloride], for which the affinity corresponds to a Ki of 16.9 nM. The Ki values of the last two compounds are within 1.5-fold of each other.

`Cl.Cl.O=c1[nH]c2c(sc3cccnc32)c(=O)n1CCCCN1CCN2c3ccccc3OCC2C1` (single isomer, unassigned; (+)) [Example 3, (+) 3-[4-(1,2,4a,5-tetrahydropyrazino[2,1-c][1,4]benzoxazin-3(4H)-yl)butyl]pyrido[2′, 3′:4,5]thieno[3,2-d]pyrimidine-2,4(1H,3H)-dione dihydrochloride]: affinity was put at a Ki of 5 nM. This Ki lies about 3.4-fold lower than the previous one.

The values above are taken from patent publication US6376488B1, “Benzoxazine α-1 adrenergic compounds” (Abbott Laboratories, priority 2000, dated 2002).
